According to publication PMC6688628, “N-Substituted Pyrrole Derivative 12m Inhibits HIV-1 Entry by Targeting Gp41 of HIV-1 Envelope Glycoprotein” (Frontiers in Pharmacology, 2019):

Tests used:
[1] = tested on: HIV-1JR-FL Env mutant W571A pseudovirus; assay type: cell-based; conditions: compared with wild-type HIV-1JR-FL pseudovirus
[2] = target: T1, gp41 6-HB (N36/C34) (Human immunodeficiency virus type 1 group M subtype B, UniProt P04578); assay: N-PAGE for gp41 6-HB formation; assay type: biochemical, HIV-1; conditions: 400, 200, 100, 50, and 25 μM incubated with N36 before C34; dose-dependent
T1 construct: purchased GL Biochem of China; host or cells: chemical solid-phase Fmoc synthesis
Description: The inhibition of gp41 6-HB formation by NSPD-12m was further confirmed by N-PAGE as reported previously ([Liu et al., 2005]). Briefly, NSPD-12m at the indicated concentrations was incubated with the peptide N36 (100 μM in PBS) at 37°C for 30 min before the addition of the peptide C34 (100 μM in PBS). After incubation at 37°C for another 30 min, the mixture was diluted in Tris-glycine native sample buffer (Invitrogen, Carlsbad, CA) and then loaded onto 10 × 1.0-cm precast Tris-glycine gels (18%, Invitrogen) at 20 µl/well. Gel electrophoresis was carried out at constant voltage of 120 V at room temperature (RT) for 2 h in Tris-glycine native running buffer. Immediately after electrophoresis, the gel was stained by Coomassie blue (Invitrogen) and imaged by the FluorChem 8800 Imaging System (Alpha Innotech, San Leandro, CA). ADS-J1 (1 mM in PBS), a small-molecule HIV-1 entry inhibitor that blocks gp41 6-HB formation, was used as a positive control ([Wang et al., 2009]).

[3] = XTT assay, U87-CD4-CCR5 cells; assay type: cell-based; conditions: human
Description: (§1) The in vitro cell viability of NSPD-12m on HIV-1 target cells (U87-CD4-CXCR4, U87-CD4-CCR5, TZM-bl, and MT-2 cells) and HIV effector cells (CHO-WT cells) was analyzed by an XTT colorimetric assay. Briefly, 100 µl of 5 × 10^5/ml cells was mixed and incubated with 100 µl of NSPD-12m at graded concentrations at 37°C for 3 days. Then, 50 µl of XTT solution (1 mg/ml) containing 0.02 µM of phenazinemethosulphate (PMS) was added to each well, and the cells were incubated at 37°C for another 4 h. The absorbance at 450 nm was measured with an ELISA reader. The 50% cytotoxicity concentrations (CC50) were calculated using the CalcuSyn software ([Chou and Talalay, 1984]).

[4] = XTT assay, U87-CD4-CXCR4 cells; assay type: cell-based; conditions: human
Description: as §1

[5] = target: T1, gp41 6-HB (N36/C34); assay: CD spectroscopy of N36/C34 alpha-helical conformation; assay type: biochemical, HIV-1; conditions: 20-µM compound preincubated with N36 before the addition of C34
Description: The effects of NSPD-12m on the formation of the secondary α-helix structures of the peptides N36 and C34 were detected by CD spectroscopy as described previously ([Liu et al., 2005]; [Zhang et al., 2018]). Briefly, the peptide N36 (10 µM in PBS) was incubated with NSPD-12m (20 µM in PBS) or PBS at 37°C for 30 min, followed by incubation with the peptide C34 (10 µM in PBS) at 37°C for another 30 min. To further confirm that NSPD-12m inhibited the formation of secondary α-helix structures, the peptide N36 was incubated with the peptide C34 at 37°C for 30 min before the addition of the compound. ADS-J1 (40 µM in PBS) was used as a positive control. The reported CD spectra of the peptides N36 and C34 and the mixture of N36, C34, and the compounds described previously were obtained at 25°C using a Jasco 715 spectropolarimeter (Jasco Inc., Japan) with a 5.0-nm bandwidth, 0.1-nm resolution, 0.1-cm path length, 4.0-s response time, and 50-nm/min scanning speed. The spectra were corrected by the subtraction of a blank corresponding to the solvent. The quantities of compounds with α-helix structures were estimated from the molar ellipticity at 222 nm using Jasco software utilities.

[6] = XTT assay, MT-2 cells; assay type: cell-based; conditions: human
Description: as §1

[7] = target: T1, gp41 6-HB (N36/C34); assay: Sandwich ELISA for gp41 6-HB formation; assay type: biochemical, HIV-1; conditions: sandwich ELISA with mAb NC-1; 0.5-µM N36 and C34
Description: The inhibition of gp41 6-HB formation by NSPD-12m was determined by a sandwich ELISA as previously described ([Liu et al., 2007]). In brief, the wells of a 96-well polystyrene plate (Corning) were first precoated with 2 µg/ml IgG purified from rabbit antisera against the N36/C34 complex at 4°C overnight. In addition, the wells were blocked by 2% dry nonfat milk at 37°C for 1 h. NSPD-12m at graded concentrations was incubated with 0.5-µM N36 at 37°C for 30 min, followed by the addition of 0.5-µM C34 at 37°C for another 30-min incubation. Afterward, the previously mentioned mixtures were added to the prepared wells and incubated at 37°C for another 1 h. Then, 1 µg/ml mAb NC-1, biotin-labeled goat anti-mouse IgG (1:10,000 diluted in PBS buffer with 2% dry nonfat milk), SA-HRP (1:20,000 diluted in PBS buffer with 10% goat serum), TMB, and 1-M H2SO4 were added sequentially. A450 was measured by an ELISA reader, and EC50 was calculated using CalcuSyn software ([Chou and Talalay, 1984]). NB-64, a small-molecule HIV entry inhibitor targeting gp41, and ADS-J1 were used as positive controls.

T1 sequence (P04578 546-581): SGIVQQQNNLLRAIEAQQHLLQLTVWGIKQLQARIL

## Cc1cc(/C=C2\SC(=S)N(Cc3ccccc3C(F)(F)F)C2=O)c(C)n1-c1ccc(O)c(C(=O)O)c1 [NSPD-12m]
[1]
  inhibitory activity against W571A mutant pseudovirus: retained the inhibitory activity
[2]
  intensity of the 6-HB band (upper position) in N-PAGE: decreased
[3]
  CC50 at 3 days: 84.7 ± 14.5 µM
  CC90 at 3 days: 102 ± 18.3 µM
[4]
  CC50 at 3 days: 101.4 ± 0.48 µM
  CC90 at 3 days: 122.5 ± 0.59 µM
[5]
  α-helical content of the 6-HB (CD, 222 nm): clearly reduced
[6]
  CC50 at 3 days: 67.1 ± 11 µM
  CC90 at 3 days: 124 ± 70.2 µM
[7]
  EC50: 23 ± 1.44 µM
